Test results taken from US6887873B2, “Triazine derivatives and their application as antitelomerase agents” (Aventis Pharma S.A., priority 2001, dated 2005).
pIC50: −log10 of the molar value.

Assays:
[1] = system: human telomerease (HL60 cell extract); test: Antitelomerease activity: extension of oligonucleotide TS followed by PCR amplification, with HL60 extract; format: biochemical; conditions: read-out: TRAP IC50
Outline: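 HL60 CHAPS-lysate extract extends TS primer (15 min, 30 °C) with compound at 10, 1, 0.1 and 0.01 µM, followed by 30-cycle PCR with TS and CXext. Products resolved on 12% acrylamide and quantified; % inhibition versus enzyme control and blank, IC50 read from semilog plot.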

A549 cells = test: Cytotoxic activity on human tumour line A549, neutral red, 96 hours; format: cell-based; conditions: Homo sapiens, A549, A549; read-out: Cytotox. A549 IC50
Method: The cytotoxic biological activity on human tumour lines is determined according to the following experimental protocol:
The human cell lines A549 are obtained from ATCC (American Type Culture Collection, Rockville, USA). The A549 cells are cultured in a layer in a culture flask in RPMI 1640 medium containing L-glutamine at 2 mM, penicillin 200 U/ml, streptomycin 200 μg/ml and supplemented with 10% heat-inactivated foetal calf serum. The KB cells are cultured in a layer in a culture flask in Dulbelco's medium containing L-glutamine at 2 mM, penicillin 200 U/ml, streptomycin 200 μg/ml and supplemented with 10% heat-inactivated foetal calf serum.
The cells at the exponential growth phase are trypsinized, washed in 1×PBS and are inoculated in 96-well microplates (Costar) in an amount of 4×10^4 cells/ml for A549 and of 1.5×10^4 cells/ml (0.2 ml/well) and then incubated for 96 hours in the presence of variable concentrations of product to be studied (10, 1, 0.1 and 0.01 μM, each point in quadruplicate). 16 hours before the end of the incubation, 0.02% final of neutral red is added to each well. At the end of the incubation, the cells are washed with 1×PBS and lysed with 1% sodium lauryl sulphate. The cellular incorporation of the dye, which reflects cellular growth, is evaluated by spectro-photometry at a wavelength of 540 nm for each sample with the aid of a Dynatech MR5000 reading apparatus.
For each compound concentration tested, the results are expressed as percentage of inhibition of cellular growth and calculated from the untreated control and the culture medium free of cells (blank) according to the following formula: (compound value−blank value/cell control value−blank value)×100.
The concentration of compound inducing a 50% inhibition of growth (IC50) is determined with the aid of a semilogarithmic graphical representation of the inhibition values obtained as a function of each of the compound concentrations tested.
A compound is considered to be active as cytotoxic agent if the concentration inhibiting the growth of the tumour cells tested by 50% is in particular less than 10 μM.

[2] = system: G-quadruplex of oligonucleotide GGGTTAGGGTTAGGGTTAGGG (3.5 repeats of the human telomereic motif); test: G-quadruplex stabilizing activity, fluorescence Tm (FAM+DABCYL oligonucleotide); format: binding
Outline: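 FAM/DABCYL-labelled telomeric oligonucleotide (0.2 μM strand) in 10 mM sodium cacodylate pH 7.6 with 0.1 M LiCl (or NaCl) was annealed, then incubated ≥1 h at 20 °C with compound at 1 μM final. Samples were heated 20→80 °C, with excitation at 470 nm and emission at 515/588 nm. Tm is the 515 nm emission midpoint.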

Compound | pIC50 [1] | pIC50 (A549 cells) | G4 delta Tm [2] [°C]
Cc1cc(N)c2cc(Nc3nc(Nc4ccc5nc(C)cc(N)c5c4)nc(N4CCN(c5ccc6ccccc6n5)CC4)n3)ccc2n1 [Example 71] | 6.46 | 4.91 | –
COc1ccc(CNc2nc(Nc3ccc4nc(C)cc(N)c4c3)nc(Nc3ccc4nc(C)cc(N)c4c3)n2)cc1 [Example 83] | 5.92 | 4.85 | –
Cc1cc(N)c2cc(Nc3nc(NCc4ccc(N(C)C)cc4)nc(Nc4ccc5nc(C)cc(N)c5c4)n3)ccc2n1 [Example 85] | 5.41 | 4.80 | –
Cc1cc(N)c2cc(Nc3nc(Nc4ccc5nc(C)cc(N)c5c4)nc(Nc4ccccn4)n3)ccc2n1 [Example 89] | 5.92 | 4.70 | –
Cc1cc(N)c2cc(Nc3nc(Nc4ccc5nc(C)cc(N)c5c4)nc(Sc4ccccc4)n3)ccc2n1 [Example 117] | – | 4.71 | –
Cc1cc(N(C)C)c2cc(Nc3nc(Nc4ccc5nc(C)cc(N(C)C)c5c4)nc(-c4ccccc4)n3)ccc2n1 [Example 134, 2,4-bis(4-dimethylamino-2-methylquinolin-6-yl)amino-6-phenyl-[1,3,5]triazine] | – | 6.06 | –
Cc1cc(N)c2cc(Nc3nc(Nc4ccc5nc(C)cc(N)c5c4)nc(N4CCC(O)CC4)n3)ccc2n1 [Example 155] | 6.41 | – | 14
COC(C)CNc1nc(Nc2ccc3nc(C)cc(N)c3c2)nc(Nc2ccc3nc(C)cc(N)c3c2)n1 (stereo not shown) [Example 156] | 5.92 | – | 14.5
Cc1cc(N)c2cc(Nc3nc(NCCO)nc(Nc4ccc5nc(C)cc(N)c5c4)n3)ccc2n1 [Example 158] | 6.07 | – | 8
COCC1CCCN1c1nc(Nc2ccc3nc(C)cc(N)c3c2)nc(Nc2ccc3nc(C)cc(N)c3c2)n1 (stereo not shown) [Example 159] | 6.37 | – | 10.5
Cc1cc(N)c2cc(Nc3nc(Nc4ccc5nc(C)cc(N)c5c4)nc(N4CCCC(O)C4)n3)ccc2n1 (stereo not shown) [Example 160] | 6.44 | – | 10.5
Cc1cc(N(C)C)c2cc(Nc3nc(Nc4ccc5nc(C)cc(N(C)C)c5c4)nc(N(CCO)CCO)n3)ccc2n1 [Example 161] | 5.72 | – | 12
Cc1cc(N(C)C)c2cc(Nc3nc(Nc4ccc5nc(C)cc(N(C)C)c5c4)nc(N4CCC(O)C4)n3)ccc2n1 (stereo not shown) [Example 162] | 5.77 | – | 17
Cc1cc(N(C)C)c2cc(Nc3nc(Nc4ccc5nc(C)cc(N(C)C)c5c4)nc(N4CCN(CCO)CC4)n3)ccc2n1 [Example 163] | 5.92 | – | 13
Cc1cc(N(C)C)c2cc(Nc3nc(Nc4ccc5nc(C)cc(N(C)C)c5c4)nc(N4CCC(O)CC4)n3)ccc2n1 [Example 164] | 5.80 | – | 12.5
COC(C)CNc1nc(Nc2ccc3nc(C)cc(N(C)C)c3c2)nc(Nc2ccc3nc(C)cc(N(C)C)c3c2)n1 (stereo not shown) [Example 165] | 5.85 | – | 6.5
Cc1cc(N(C)C)c2cc(Nc3nc(NCCO)nc(Nc4ccc5nc(C)cc(N(C)C)c5c4)n3)ccc2n1 [Example 167] | 5.96 | – | 6
COCC1CCCN1c1nc(Nc2ccc3nc(C)cc(N(C)C)c3c2)nc(Nc2ccc3nc(C)cc(N(C)C)c3c2)n1 (stereo not shown) [Example 168] | 5.96 | – | 16.5
Cc1cc(N(C)C)c2cc(Nc3nc(Nc4ccc5nc(C)cc(N(C)C)c5c4)nc(N4CCCC(O)C4)n3)ccc2n1 (stereo not shown) [Example 169] | 6.15 | – | 16.5
Cc1cc(N(C)C)c2cc(Nc3nc(Nc4ccc5nc(C)cc(N(C)C)c5c4)nc(NC(CO)CO)n3)ccc2n1 [Example 170] | 5.89 | – | 3
Cc1cc(N(C)C)c2cc(Nc3nc(Nc4ccc5nc(C)cc(N(C)C)c5c4)nc(NC(CO)C(=O)O)n3)ccc2n1 (stereo not shown) [Example 171] | 6.31 | – | 13
Cc1cc(N)c2cc(Nc3nc(Nc4ccc5nc(C)cc(N)c5c4)nc(NC(CO)CO)n3)ccc2n1 [Example 173] | 6.21 | – | 11.5
Cc1cc(N(C)C)c2cc(Nc3nc(Nc4ccc5nc(C)cc(N(C)C)c5c4)nc(NC(C)CO)n3)ccc2n1 (stereo not shown) [Example 175] | 5.52 | – | 3
Cc1cc(N(C)C)c2cc(Nc3nc(NCC(O)CO)nc(Nc4ccc5nc(C)cc(N(C)C)c5c4)n3)ccc2n1 (stereo not shown) [Example 176] | 5.52 | – | 6
